Like-named read-outs stand apart in the source and are kept apart here.
Tests used:
[1] = LogD (measured octanol water co-efficient); format: physicochemical
[2] = PAMPA (parallel artificial membrane permeability assay); format: in vitro ADME; conditions: FA: fraction absorbed
Procedure: (§1) Test compounds’ solubility was determined in a high-throughput thermodynamic solubility assay, as described previously. The PAMPA (parallel artificial membrane) assays were carried out, using a standard protocol. Plasma protein binding was determined by using mouse blood, whilst brain tissue binding was determined by using rat brain tissue homogenate. Intrinsic metabolic clearances were determined in mouse liver microsomes, using the compound depletion approach and LC–MS/MS quantification.

[3] = Intrinsic metabolic clearance in mouse liver microsomes; format: in vitro ADME
Procedure: as §1

[4] = Intravenous pharmacokinetics in mouse; format: in vivo; conditions: for T1/2 / Vd: i.v. 5 mg/kg; for T1/2: elimination half-life; for Vd: read-out: Vss
Procedure: Determination of intravenous (i.v.) and per oral (p.o.) pharmacokinetics (PK) were carried out by using male BALB/c mice. […] To avoid any granular material, the solution was filtered, using a 0.45 μm syringe filter. The filtered solutions were dosed intravenously to mice via the lateral tail vein, at 5 mg/kg, with a dosing volume of 2 mL/kg. For all the p.o. PK studies, compounds were resuspended in 0.5% v/v methyl cellulose in 0.5 % v/v tween 80 solution. For 20 mg/kg dosing, 200 µL of compounds was administered orally to mice. […] Blood samples were collected into heparin microtainers and centrifuged, and then plasma was separated and frozen until analysis. Plasma samples (20 μL) were extracted with acetonitrile:methanol (3:1) containing internal standard. […] The supernatant was transferred to a 96-well analysis plate and analyzed, using optimized LC/MS/MS conditions. For every experiment, 3 mice were used per compound, per dose. The plasma concentration-time profile was obtained by plotting the mean value from the three animals at each time point. Various PK parameters, such as Cmax (maximum concentration), area under curve (AUC) and oral bioavailability (F) for compounds, were calculated by non-compartmental regression analysis, using an in-house fitting program developed at GNF [8]. All the in-life studies were carried out under protocols approved by the Animal Care and Use Committee (IACUC), following animal ethics guidelines of GNF.

T. b. brucei STIB795 = test: Hemolymphatic mouse model (stage 1 HAT efficacy model); format: in vivo; conditions: for % Cured / Mean day of Relapse / Mice Cured/Total: four days; for Minimum efficacious dose: QD dosing for four days, stage 1 model
Procedure: The T. b. brucei STIB795 acute mouse model mimics the hemolymphatic stage of the sleeping sickness disease. We used six female NMRI mice per experimental group, divided into two cages. Heparinized blood from a donor mouse with approximately 5 × 10^6 per mL parasitemia was suspended in phosphate saline glucose (PSG), to obtain a parasite suspension of […]. Each mouse was injected with 0.25 mL of parasite suspension (10^4 bloodstream forms of T. b. brucei STIB795) intraperitoneally. All compounds were formulated in 0.5% methylcellulose and 0.5% Tween80. Three days post-infection, test compounds were administered orally on four consecutive days, in a volume of 100 µL/10 g. Three mice served as infected–untreated controls. […] Until 31 days post-infection, parasitemia was monitored microscopically by tail-blood examination twice a week. Mice were considered cured when there was no parasitemia detected in the tail blood. All the results from the individual experiments were reported as number of mice cured over total number of mice treated. A Kaplan–Meier plot was used for representing the number of mice cured at different treatment doses.

[5] = test system: MDR1-MDCK (Multi Drug Resistant 1 overexpressing Madin–Darby canine kidney cells); test: in vitro; conditions: dog
Procedure: (§2) In order to evaluate potential of brain permeability, all three compounds were tested in an MDR1-MDCK permeability assay. […] Those that have a high efflux ratio are generally substrates for Pgp transporters, thereby having a higher propensity to be excluded from the brain. […] To assess directly the TP compounds’ ability to penetrate brain, mice were dosed with compound, and plasma and brains were collected after 5 and 60 min following intravenous dosing.

[6] = Brain-to-plasma drug concentration ratio in mice; format: in vivo; conditions: mouse, read-out: B/P Ratio; for Kp at 5 min: 5 min after 1 mg/kg i.v.; for Kp at 60 min: 60 min after 1 mg/kg i.v.
Procedure: For measurement of the brain-to-plasma drug concentration ratio, mice were dosed intravenously with 1 mg/kg compounds. Mice were euthanized at 5 and 60 min post-dosing, and blood and brains were collected. The compound concentrations in plasma and brains were measured, following the protocol described above.

[7] = test system: T. b. brucei (GVR35-VSL2); test: Meningoencephalic mouse model (stage 2 HAT efficacy model, GVR35) with bioluminescence imaging; format: in vivo; conditions: for Dose that completely cured stage 2 infection: HAT mouse model
Procedure: The GVR35 mouse CNS model mimics the second (meningoencephalic) stage of African trypanosomiasis. Female CD1 mice (~8 weeks old, from Charles River) were injected intraperitoneally (i.p.) with 3 × 10^4 T. b. brucei (GVR35-VSL2) bloodstream-form parasites. As controls, a group of three untreated mice and another group of three mice treated with diminazene aceturate (DA) were included. […] Mice treated with DA usually relapse after 42 days post-infection. […]
Blood parasitemia was quantified weekly from day 21/22, by microscopy of blood from the tail vein. Mice were imaged for bioluminescence using an in vivo imaging system (IVIS) prior to treatment on day 21/22, and weekly after treatment, as described previously. Briefly, mice, in groups of three, were injected i.p. with 150 mg of D-luciferin (Promega) per kilogram body weight in PBS and imaged after 10 min, using an IVIS Spectrum (PerkinElmer, Waltham, Massachusetts MA, USA). Living Image Software (PerkinElmer) was used for acquisition and analysis of bioluminescence imaging data. Bioluminescence in the same rectangular region of interest (ROI) on whole-body mouse images was quantified and is shown in total flux (photons per second). Images were cropped to the ROIs and composites of images from representative mice are shown. Uncured mice were euthanized within 1 or 2 days of parasite detection in the blood. Cured mice were euthanized between day 92 and 101 post-infection. All the results from the individual experiments were reported as number of mice cured over total number of mice treated. A Kaplan–Meier plot was used for representing the number of mice cured at different treatment doses.

MDR1 (Pgp) = test: in vitro; conditions: dog, MDCK-MDR1
Procedure: as §2

[8] = male, BALB/c, plasma, iv, 5 mg/kg

## Cc1nc(C)c(C(=O)Nc2ccc(F)c(-c3nc4ncc(-c5ccccn5)cn4n3)c2)o1 [GNF6702]
[1]
  logD: 2.32
[2]
  PAMPA Permeability (% FA): 92 % FA
[3]; microsomes
  microsomal CLint: 34.1 µL/min/mg
[4]
  T1/2: 7.0 H
[4]; male, BALB/c, in vivo, iv
  Vd: 1.2 L/kg
[4]; [8]
  clearance: 2.26 mL/min/kg
T. b. brucei STIB795; 0.1 mg/kg QD oral
  % Cured: 0%
  Mean day of Relapse: 6.83 days post infection
T. b. brucei STIB795; 0.3 mg/kg QD oral
  % Cured: 33.3%
  Mean day of Relapse: 19 days post infection
T. b. brucei STIB795; 1 mg/kg QD oral
  % Cured: 100%
  Mean day of Relapse: >31 days post infection
T. b. brucei STIB795; 3 mg/kg QD oral
  % Cured: 100%
  Mean day of Relapse: >31 days post infection
T. b. brucei STIB795; 10 mg/kg QD oral
  % Cured: 100%
  Mean day of Relapse: >31 days post infection
T. b. brucei STIB795
  Minimum efficacious dose: 1 mg/kg
[5]
  MDR1-MDCK A–B: 8.3
  MDR1-MDCK B–A: 22.1
[6]; in vivo
  Kp at 5 min: 0.13
  Kp at 60 min: 0.17
[7]; 3 mg/kg QD oral, seven days
  % Cured: 0%
  Mean Day of Relapse: 47 days post infection
[7]; 10 mg/kg QD oral, seven days
  % Cured: 66%
  Day of Relapse, mice which did not relapse (value in parenthesis): > 92 days post infection
[7]; 10 mg/kg QD oral, seven days, mice which relapsed
  Mean Day of Relapse: 50 days post infection
[7]; 30 mg/kg QD oral, seven days
  % Cured: 100%
  Mean Day of Relapse: >92 days post infection
[7]; 100 mg/kg QD oral, seven days
  % Cured: 100%
  Mean Day of Relapse: >92 days post infection
[7]; 30 and 100 mg/kg, once daily, oral
  Cure outcome: complete cure
[7]
  Dose that completely cured stage 2 infection: 30 mg/kg

## Cc1nc(C)c(C(=O)Nc2ccc(F)c(-c3nc4ncc(C(C)(C)C)cn4n3)c2)o1 [NITD689]
[1]
  logD: 3.05
[2]
  PAMPA Permeability (% FA): 99.1 % FA
[3]; liver microsomes, read-out: Mouse liver microsomal clearance
  microsomal CLint: 7.41 µL/min/mg
[4]
  T1/2: 1.6 H
[4]; [8]
  clearance: 13.5 mL/min/kg
[4]; male, BALB/c, plasma, iv, 5 mg/kg, i.v., read-out: Elimination half-life (converted)
  half-life: 1.6 h
[4]; male, BALB/c, plasma, iv
  Vd: 1.5 L/kg
T. b. brucei STIB795; 1 mg/kg QD oral
  % Cured: 0%
  Mean day of Relapse: 19.5 days post infection
  Mice Cured/Total: 0/6
T. b. brucei STIB795; 1.5 mg/kg BID oral
  % Cured: 16.7%
  Mean day of Relapse: 21 days post infection
  Mice Cured/Total: 1/6
T. b. brucei STIB795; 3 mg/kg QD oral
  % Cured: 50%
  Mean day of Relapse: 21 days post infection
  Mice Cured/Total: 3/6
T. b. brucei STIB795; 10 mg/kg QD oral
  % Cured: 100%
  Mean day of Relapse: >31 days post infection
  Mice Cured/Total: 6/6
T. b. brucei STIB795
  Minimum efficacious dose: 10 mg/kg
MDR1 (Pgp)
  efflux ratio: 0.9
[5]
  MDR1-MDCK A–B: 32.6
  MDR1-MDCK B–A: 29.2
[6]; brain and plasma, intravenous
  Kp at 5 min: 0.12
  Kp at 60 min: 0.12
[7]; 15 mg/kg BID oral, seven days
  % Cured: 0%
  Mean Day of Relapse: 42 days post infection
  Mice Cured/Total: 0/6
[7]; 15 mg/kg twice daily and 30 mg/kg once daily
  Cure outcome: failed to cure
[7]; 30 mg/kg BID oral, seven days
  % Cured: 100%
  Mean Day of Relapse: >94 days post infection
  Mice Cured/Total: 6/6
[7]; 30 mg/kg QD oral, seven days
  % Cured: 0%
  Mean Day of Relapse: 50 days post infection
  Mice Cured/Total: 0/6
[7]; 30 mg/kg twice daily and 60 mg/kg once daily
  Cure outcome: complete cure
[7]; 60 mg/kg QD oral, seven days
  % Cured: 100%
  Mean Day of Relapse: >94 days post infection
  Mice Cured/Total: 6/6
[7]
  Dose that completely cured stage 2 infection: 60 mg/kg

Reference: paper PMC7157554, “Anti-Trypanosomal Proteasome Inhibitors Cure Hemolymphatic and Meningoencephalic Murine Infection Models of African Trypanosomiasis” (Tropical Medicine and Infectious Disease, 2020)
